The text below walks through data of US8211933B2, “3.3.0 bicyclic GlyT1 inhibitors and methods of making and using same” (Vanderbilt University, priority 2008, dated 2012).

One assay concerns the target T1, GlyT1 (Homo sapiens, UniProt P48067).
T1 construct: Human placental choriocarcinoma cells endogenously expressing GlyT1 can be cultured using standard conditions; host or cells: JAR human placental choriocarcinoma cells
T1 sequence (P48067 1-706): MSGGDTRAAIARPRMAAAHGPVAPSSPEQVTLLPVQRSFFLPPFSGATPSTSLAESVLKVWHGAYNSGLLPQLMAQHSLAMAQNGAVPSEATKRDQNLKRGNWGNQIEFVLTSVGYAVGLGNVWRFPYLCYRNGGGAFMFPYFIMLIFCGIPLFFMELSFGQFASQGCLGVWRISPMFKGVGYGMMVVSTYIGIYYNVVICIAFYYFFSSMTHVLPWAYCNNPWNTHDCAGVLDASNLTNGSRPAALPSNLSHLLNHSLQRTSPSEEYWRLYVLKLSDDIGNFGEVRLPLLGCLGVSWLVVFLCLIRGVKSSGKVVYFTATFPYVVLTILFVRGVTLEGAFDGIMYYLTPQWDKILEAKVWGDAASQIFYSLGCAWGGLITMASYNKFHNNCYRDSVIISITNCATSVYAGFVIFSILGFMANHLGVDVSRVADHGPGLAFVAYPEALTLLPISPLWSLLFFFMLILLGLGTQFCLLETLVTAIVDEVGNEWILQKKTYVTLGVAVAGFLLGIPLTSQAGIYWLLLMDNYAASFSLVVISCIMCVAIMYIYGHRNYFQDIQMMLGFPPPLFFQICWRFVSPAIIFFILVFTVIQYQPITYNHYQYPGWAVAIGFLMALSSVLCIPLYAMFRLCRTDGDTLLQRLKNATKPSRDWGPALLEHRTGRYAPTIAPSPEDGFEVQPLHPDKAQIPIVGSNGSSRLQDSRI
In words: [14C]-glycine uptake in JAR cells endogenously expressing GlyT1 (Cytostar T scintillation proximity). The assay is classed as cell-based. The conditions noted are these: inhibition of [14C]-glycine uptake (10 μM), JAR cells, 3 h; read-out: Potency (IC50). The protocol: Human placental choriocarcinoma cells endogenously expressing GlyT1 can be cultured using standard conditions. Cells can then be grown at 37° C. in a humidified atmosphere 40-48 hours before the assay. Culture medium can be removed from the culture plate, and cells can be incubated with an amount of TBlA buffer with or without the compounds of the present invention for a sufficient period of time. Then an amount of [^14C]-glycine diluted with TBlA can be added to each well. After incubation the microplates can be sealed and counted. Non-specific uptake of [^14C]-glycine can be determined in the presence of unlabeled glycine. To determine potencies, a range of concentrations of the compounds of the present invention can be added to the cells, followed by the fixed concentration of [^14C]-glycine. The concentration of the present compound that inhibited half of the specific uptake of [^14C]glycine (IC50 value) can be determined from the assay data by non-linear curve fitting.
The procedure used was analogous to that disclosed in Williams, J. B.; Mallorga P. J.; Lemaire W.; Williams D. L.; Na S.; Patel S.; Conn J. P.; Pettibone D. J.; Austin C.; Sur C.; “Development of a scintillation proximity assay for analysis of Na+/Cl−-dependent neurotransmitter transporter activity,” ANAL. BIOCHEM.
Cells were plated at a density of 1.3×10^4 cells/well and grown at 37° C. in a humidified atmosphere of 5% CO2 for 40-48 h. Culture medium was removed from the Cytostar T plate and JAR cells were incubated with 30 μl A of TBlA buffer (120 mM NaC1, 2 mM KCl, 1 mM CaCl2, 1 mM MgCl2, 10 mM Hepes, 5 mM L-alanine, pH 7.5 adjusted with 1 M Tris base) with or without multiple concentrations of test compound (added at 2× final concentration) for 1 min. Then 30 μl of [^14C]-glycine (Perkin-Elmer) diluted in TBlA was added to each well to give a final concentration of 10 μM. Cytostar T plates were then incubated in the dark at room temperature for 3 h, sealed with opaque white bottom plate seals (Perkin-Elmer) and clear top plate seals (Topseal A, Perkin-Elmer), and were counted on a Top Count (Packard). Glycine uptake was determined by measuring radioactivity in each well and plotted as a function of concentration of test compound. […] Nonspecific uptake of [^14C]-glycine was determined in the presence of 10 mM cold glycine. [^14C]-taurine (American Radiolabeled Chemicals, Inc.) uptake experiments were performed according to the same protocol except that 10 mM cold taurine was used to determine nonspecific uptake. […] COS-7 cells were transiently transfected with the human GlyT2 cDNA (Origene Technologies Inc., SC303452) using Fugene 6 (Roche) according to the manufacturer's instructions in Dulbecco's modified Eagle's medium (DMEM, Invitrogen) containing 10% Fetal Bovine Serum, 10 mM HEPES, 1 mM sodium pyruvate, penicillin (100 μg/ml), and streptomycin (100 μg/ml). The following day, the cells were plated at a density of 5×10^5 cells/well in Cytostar T plates and maintained at 37° C. in a humidified atmosphere of 5% CO2 for 24 h. GlyT2 glycine uptake experiments were performed according to the same protocol previously described.
On the technique in general: Scintillation proximity formats need no separation of bound from free tracer.
The IC50 is the point on the concentration scale where inhibition reaches its midpoint. For `Cn1cnc(S(=O)(=O)N2CC3CCC(NC(=O)c4ccc(F)c(F)c4)C3C2)c1` (centres unmarked) [Compound 7j, 3,4-difluoro-N-(2-(1-methyl-1H-imidazol-4-ylsulfonyl)octahydrocyclopenta[c]pyrrol-4-yl)benzamide], the IC50 amounted to 0.903 µM.

Staying with this assay, now noted: read-out: Potency (IC50).
As to `Cn1cnc(S(=O)(=O)N2CC3CCC(NC(=O)c4ccccc4Cl)C3C2)c1` (centres unmarked) [Compound 7b, 2-chloro-N-(2-(1-methyl-1H-imidazol-4-ylsulfonyl)octahydrocyclopenta[c]pyrrol-4-yl)benzamide], the IC50 was determined as 0.101 µM. The same measure, in the same setting: the value for `Cn1cnc(S(=O)(=O)N2CC3CCC(NC(=O)c4ccc(Cl)cc4)C3C2)c1` (centres unmarked) [Compound 7c, 4-chloro-N-(2-(1-methyl-1H-imidazol-4-ylsulfonyl)octahydrocyclopenta[c]pyrrol-4-yl)benzamide] was 1.03 µM; that for `Cn1cnc(S(=O)(=O)N2CC3CCC(NC(=O)c4ccccc4C(F)(F)F)C3C2)c1` (centres unmarked) [Compound 7d, N-(2-(1-methyl-1H-imidazol-4-ylsulfonyl)octahydrocyclopenta[c]pyrrol-4-y1)-2-(trifluoromethyl)benzamide] was 0.078 µM; that for `Cn1cnc(S(=O)(=O)N2CC3CCC(NC(=O)c4ccc(F)cc4F)C3C2)c1` (centres unmarked) [Compound 7e, 2,4-difluoro-N-(2-(1-methy1-1H-imidazol-4-ylsulfonyl)octahydrocyclopenta[c]pyrrol-4-yl)benzamide] was 0.925 µM. Same read-out and setting: the value for `Cn1cnc(S(=O)(=O)N2CC3CCC(NC(=O)c4ccccc4F)C3C2)c1` (centres unmarked) [Compound 7f, 2-fluoro-N-(2-(1-methyl-1H-imidazol-4-ylsulfonyl)octahydrocyclopenta[c]pyrrol-4-yl)benzamide] was 1.8 µM; that for `Cn1cnc(S(=O)(=O)N2CC3CCC(NC(=O)c4ccc(Cl)c(Cl)c4)C3C2)c1` (centres unmarked) [Compound 7g, 3,4-dichloro-N-(2-(1-methyl-1H-imidazol-4-ylsulfonyl)octahydrocyclopenta[c]pyrrol-4-yl)benzamide] was 0.891 µM. Take `Cn1cnc(S(=O)(=O)N2CC3CCC(NC(=O)c4ccc(F)cc4)C3C2)c1` (centres unmarked) [Compound 7h, 4-fluoro-N-(2-(1-methyl-1H-imidazol-4-ylsulfonyl)octahydrocyclopenta[c]pyrrol-4-yl)benzamide]: the IC50 is 2.2 µM. `Cn1cnc(S(=O)(=O)N2CC3CCC(NC(=O)c4c(F)cccc4F)C3C2)c1` (centres unmarked) [Compound 7i, 2,6-difluoro-N-(2-(1-methy1-1H-imidazol-4-ylsulfonyl)octahydrocyclopenta[c]pyrrol-4-yl)benzamide]: the IC50 came to 0.63 µM. With `CCCS(=O)(=O)N1CC2CCC(NC(=O)c3ccc(Cl)cc3Cl)C2C1` (centres unmarked) [Compound 71, 2,4-dichloro-N-(2-(propylsulfonyl)octahydrocyclopenta[c]pyrrol-4-yl)benzamide], the IC50 was determined as 7 µM.

The assay is the same for the next values; noted with them: result in words; inhibition of [14C]-glycine uptake (10 μM), JAR cells, 3 h.
`Cn1cnc(S(=O)(=O)N2CC3CCC(NC(=O)c4ccc(Cl)cc4Cl)C3C2)c1` (centres unmarked) [Compound 5b, 2,4-dichloro-N-(2-(1-methyl-1H-imidazol-4-ylsulfonyl)octahydrocyclopenta[c]pyrrol-4-yl)benzamide]: the “Potency (IC50)” value is recorded as “Inactive”.
